Test results as given in patent US8435519B2, “Antibodies that bind alpha subunit of sodium potassium ATPase” (priority 2005, dated 2013).

Key:
D-R region of NKA = molecular target: T1, D-R region of NKA (Rattus norvegicus, UniProt P06685); assay: Immunofluorescent staining of rat cardiac myocytes; type: binding; conditions: ouabain 5, 10 and 20 mM
T1 construct: endogenous in cells; host or cells: isolated rat cardiac myocytes, frozen sections
Protocol: With both ouabain and SSA412: FIG. 5E: a group of cells with 5 mM ouabain at a magnification of 400×, FIG. 5F: a single cell with 5 mM ouabain at 1200×, FIG. 5G: cells with 10 mM ouabain, FIG. 5H: cells with 20 mM ouabain.
Isolated rat heart cells were incubated in 1 ml cold lysis buffer containing 150 mM NaCl, 10 mM EDTA, 1% NP-40, 1 mM Na3VO4, and 1× protease inhibitor cocktail as described, with or without antibody. Immunoprecipitates were boiled for 5 min and loaded on a 7% SDS gel, and transferred from the SDS gel to a nitrocellulose membrane. The nitrocellulose membrane was blocked with 5% nonfat milk for 1 hour and incubated with SSA412 or other control antibodies overnight at 4° C. Alkaline phosphatase conjugated secondary antibody (1:2500) was then incubated with the membrane for 1 hour and washed 3 times with TBS in 0.05% Tween-20. Color was developed using a reagent containing a mixture of NBT and BCIP (Promega Corporation, WI). For immunofluorescent staining, rat myocytes were frozen and cut on a cryostat. Sections (8 μm) of each tissue were blocked with 1% bovine serum albumin (BSA) and incubated with SSA412 (1:100) for 60 min in the presence or absence of 5, 10, and 20 mM ouabain. Washed slides were evaluated after incubation with a FITC conjugated goat anti-rabbit antibody (1:75).

[1] = system: α- and β-adrenergic receptors in isolated rat myocytes; assay: Effect of α- and β-adrenergic receptor inhibitors on cell contraction; type: cell-based; conditions: 1 μM isoproterenol, inhibitors 7 μM each
Protocol: Cell contractions were measured in the presence or absence of SSA412 (0.5 μM) with or without inhibitors. Black circles: with 1 μM isoproterenol. Open circles: with 1 μM isoproterenol+ both prazosin and propennol (7 μM each). Black triangles: with SSA412 in the presence of both prazosin and propennol (7 μM each). Data are presented as percent of control (n=8 cells for each group).
Myocytes were placed on an inverted microscope (Zeiss model IM-35), superfused with HEPES-buffered solution at a flow rate of 1.8 ml/min, and electrically stimulated at 0.5 Hz at 23° C. Cell length was monitored from the bright-field image (650 nm to 750 nm red light illumination) by an optical edge-tracking method using a photodiode array (model 1024 SAQ, Reticon) with a 3-ms time resolution. Contraction amplitude was measured as the percentage of shortening of cell length.

[2] = system: isolated rat cardiac myocytes; assay: Intracellular Ca2+ transients and cell contraction; type: cell-based; conditions: SSA412 + 0.5 mM peptide blocker
Protocol: Ventricular cardiac myocytes were isolated from adult Sprague-Dawley rats (2-3 months old, weight 225-300 g) using standard enzymatic technique as described previously.^1 Briefly, following anaesthesia (sodium pentobarbital, 100 mg/kg), the heart was quickly removed from the chest and aortic perfused at constant pressure at 37° C. for 3 min with a Ca^2+-free bicarbonate-based buffer containing 120 mM NaCL, 5.4 mM MgSO4, 1.2 mM NaH2PO4, 5.6 mM glucose, 20 mM NaHCO3, and 5 mM taurine, in the presence of O2 (95%)/CO2 (5%). Enzymatic digestion was initiated by adding collagenase (Worthington Type II, 1 mg/ml) to the perfusion solution. Calcium (50 μM) was added to the enzyme solution when the heart became swollen. About 7 min later, the left ventricle was quickly removed, cut into several pieces, and further digested on a shaker (60-70 rpm) for 10 min in the same enzyme solution. […]
Myocytes were placed on an inverted microscope (Zeiss model IM-35), superfused with HEPES-buffered solution at a flow rate of 1.8 ml/min, and electrically stimulated at 0.5 Hz at 23° C. Cell length was monitored from the bright-field image (650 nm to 750 nm red light illumination) by an optical edge-tracking method using a photodiode array (model 1024 SAQ, Reticon) with a 3-ms time resolution. Contraction amplitude was measured as the percentage of shortening of cell length. […]

[3] = molecular target: T2, purified ouabain-sensitive dog NKA (Canis lupus familiaris, UniProt P50997); assay: NKA catalytic activity (ATPase assay, Kyte's method), purified dog NKA; type: biochemical; conditions: FIG. 7, antibody + peptide blocker
T2 construct: 30 μg of purified dog kidney NKA; from tissue; host or cells: dog kidney
Protocol: A first series of experiments were conducted testing whether antibody SSA412, binding to the D-R region of the alpha 1-subunit, affects NKA activity. NKA activity was determined based on Jack Kyte's method as previously described [17, which is hereby incorporated by reference as if set forth fully herein]. […] FIG. 2A and FIG. 2B show the time course of activation of purified rat (FIG. 2A: 0.125 mg/ml, ouabain-resistant) or dog (FIG. 2B: 0.125 mg/ml, ouabain-sensitive) NKA incubated with SSA412 (0.5 and 1.0 μM) or with 1.0 μM normal rabbit total IgG at 4° C. or at room temperature (FIG. 2C and FIG. 2D). The control is indicated by closed circles, […] SSA412 by open circles, […] SSA412 by closed triangles and […] rabbit IgG by open triangles.
NKA activity was determined based on Jack Kyte's method as previously described under various experimental conditions as indicated in FIG. 2. All NKA activities in different experiments are ouabain-sensitive activity. Purified ouabain-resistant rat NKA and ouabain-sensitive dog NKA were used to verify the data. Enzymes were incubated with or without SSA412 for 60 min at room temperature. The reaction was initiated by adding different concentrations of MgATP in a final volume of 0.25 ml at 37° C. for 30 min and terminated by adding 0.75 ml quench solution and 0.025 ml developer. Color was developed for 30 minutes at room temperature and the concentration of phosphate was then determined at 700 nm using a spectrophotometer. NKA turnover number (kcat) was calculated using the equation kcat=Vmax/Et, where Vmax is the maximal velocity (rate of reaction) and Et represents enzyme concentration.

## C[C@@H]1O[C@@H](O[C@H]2C[C@@H](O)[C@]3(CO)[C@H]4[C@H](O)C[C@]5(C)[C@@H](C6=CC(=O)OC6)CC[C@]5(O)[C@@H]4CC[C@]3(O)C2)[C@H](O)[C@H](O)[C@H]1O [Ouabain, ouabain]
D-R region of NKA
  competition with SSA412 binding to the D-R region of NKA: does not compete

## COc1cc2nc(N3CCN(C(=O)c4ccco4)CC3)nc(N)c2cc1OC [prazosin]
[1]
  effect of inhibitor on action of the agonist isoproterenol: eliminated

## CC(C)NCC(O)COc1cccc2ccccc12 (stereo not shown) [propennol]
[1]
  effect of inhibitor on action of the agonist isoproterenol: eliminated

## DVEDSYGQQWTYEQR (Activation site of the (Na+K)-ATPase)
[2]
  SSA412-induced increase in calcium and contraction in presence of peptide blocker: blocked

## KRQPRNPKTDKLVNE (Activation site of the (Na+K)-ATPase) [PB95]
[3]
  antibody-induced increase in NKA in presence of respective peptide blocker: blocked

## RSATEEEPPNDD (Activation site of the (Na+K)-ATPase) [PB78]
[3]
  antibody-induced increase in NKA in presence of respective peptide blocker: blocked

## VPAISLAYEQAESD (VPASLAYEQAESD; Activation site of the (Na+K)-ATPase) [PB97]
[3]
  antibody-induced increase in NKA in presence of respective peptide blocker: blocked
